For 3 molecules, IC50 and EC50 results are on record in ChEMBL document CHEMBL1201862, “PubChem BioAssay data set” (2004).

Assay [1] deals with Serine/threonine-protein phosphatase PP1-alpha catalytic subunit (Homo sapiens, UniProt P62136). The assay can be described thus: inhibition of protein phosphatase 1 activity – biochemical, fluorescence, dose response (AID 2394).
The target of assay [2] is T1, Sentrin-specific protease 6 (Homo sapiens, UniProt Q9GZR1).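 Also: Luminescence-based dose-response confirmatory assay of SENP6 inhibition, following up an ultra-high-throughput screen.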
T1 sequence (Q9GZR1 whole entry): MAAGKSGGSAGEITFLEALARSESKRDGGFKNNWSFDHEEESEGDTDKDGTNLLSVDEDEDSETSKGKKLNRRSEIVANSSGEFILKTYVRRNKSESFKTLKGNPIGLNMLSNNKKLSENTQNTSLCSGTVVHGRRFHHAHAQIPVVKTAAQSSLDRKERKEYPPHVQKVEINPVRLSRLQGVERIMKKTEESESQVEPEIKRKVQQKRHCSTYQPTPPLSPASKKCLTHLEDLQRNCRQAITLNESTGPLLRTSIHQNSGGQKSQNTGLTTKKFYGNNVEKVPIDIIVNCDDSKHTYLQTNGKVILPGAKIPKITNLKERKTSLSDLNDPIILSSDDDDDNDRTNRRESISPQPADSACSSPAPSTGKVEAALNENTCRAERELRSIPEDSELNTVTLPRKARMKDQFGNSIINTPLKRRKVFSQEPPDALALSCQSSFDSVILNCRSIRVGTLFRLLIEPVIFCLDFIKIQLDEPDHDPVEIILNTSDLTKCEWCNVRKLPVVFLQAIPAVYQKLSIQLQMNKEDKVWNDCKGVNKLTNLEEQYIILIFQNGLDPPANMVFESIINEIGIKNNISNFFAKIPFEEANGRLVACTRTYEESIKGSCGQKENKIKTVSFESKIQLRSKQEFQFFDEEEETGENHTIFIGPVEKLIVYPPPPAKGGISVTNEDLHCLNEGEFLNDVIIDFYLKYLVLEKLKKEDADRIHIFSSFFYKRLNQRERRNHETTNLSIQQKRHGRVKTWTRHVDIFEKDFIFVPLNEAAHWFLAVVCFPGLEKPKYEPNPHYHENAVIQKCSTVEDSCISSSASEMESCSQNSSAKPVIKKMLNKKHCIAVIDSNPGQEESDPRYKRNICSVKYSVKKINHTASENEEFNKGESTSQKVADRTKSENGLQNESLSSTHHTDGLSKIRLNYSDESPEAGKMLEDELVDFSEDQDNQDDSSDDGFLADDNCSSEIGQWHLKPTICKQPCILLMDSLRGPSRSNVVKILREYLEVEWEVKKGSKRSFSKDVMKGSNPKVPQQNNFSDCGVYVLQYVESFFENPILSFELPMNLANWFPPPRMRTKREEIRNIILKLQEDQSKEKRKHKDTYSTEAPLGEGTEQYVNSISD
The class given is functional.

Assay [3] addresses T2, Sentrin-specific protease 8 (Homo sapiens, UniProt Q96LD8).
T2 sequence (Q96LD8 whole entry): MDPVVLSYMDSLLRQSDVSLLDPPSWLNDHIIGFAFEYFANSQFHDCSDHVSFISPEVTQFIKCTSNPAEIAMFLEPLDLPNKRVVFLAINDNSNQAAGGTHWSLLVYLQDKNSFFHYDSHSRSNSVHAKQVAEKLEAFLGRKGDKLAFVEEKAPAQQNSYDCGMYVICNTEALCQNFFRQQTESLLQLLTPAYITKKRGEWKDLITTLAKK
It is filed as functional.

Assay [4] has as its target Intestinal-type alkaline phosphatase (Homo sapiens, UniProt P09923). The assay can be described thus: activation of human intestinal alkaline phosphatase – biochemical, dose response (AID 488873). The class given is functional.
For assay [5], the target named is T3, Alkaline phosphatase, tissue-nonspecific isozyme (Homo sapiens, UniProt P05186).
T3 sequence (P05186 whole entry): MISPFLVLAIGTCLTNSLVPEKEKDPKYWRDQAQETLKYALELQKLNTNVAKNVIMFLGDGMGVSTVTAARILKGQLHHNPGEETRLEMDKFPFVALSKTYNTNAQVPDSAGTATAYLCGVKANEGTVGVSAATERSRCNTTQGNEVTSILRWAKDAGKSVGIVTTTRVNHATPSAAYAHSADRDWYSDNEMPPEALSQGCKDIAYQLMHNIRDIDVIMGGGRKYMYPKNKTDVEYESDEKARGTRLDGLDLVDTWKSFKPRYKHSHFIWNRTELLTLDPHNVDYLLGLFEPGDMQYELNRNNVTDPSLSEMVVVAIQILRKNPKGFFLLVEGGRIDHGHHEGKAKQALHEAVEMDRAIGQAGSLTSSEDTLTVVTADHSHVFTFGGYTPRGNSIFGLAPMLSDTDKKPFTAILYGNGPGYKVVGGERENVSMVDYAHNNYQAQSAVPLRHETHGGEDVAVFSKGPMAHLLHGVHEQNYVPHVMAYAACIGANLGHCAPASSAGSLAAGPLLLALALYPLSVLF
Description: TNAP enzyme inhibition by screening hits, dose response, selectivity assay for mouse IAP inhibitor project, biochemical, human TNAP, uHTS hits (AID 488906). It is filed as functional.

For a further assay, the target named is T4, Caspase-3 (Homo sapiens, UniProt P42574).
T4 sequence (P42574 whole entry): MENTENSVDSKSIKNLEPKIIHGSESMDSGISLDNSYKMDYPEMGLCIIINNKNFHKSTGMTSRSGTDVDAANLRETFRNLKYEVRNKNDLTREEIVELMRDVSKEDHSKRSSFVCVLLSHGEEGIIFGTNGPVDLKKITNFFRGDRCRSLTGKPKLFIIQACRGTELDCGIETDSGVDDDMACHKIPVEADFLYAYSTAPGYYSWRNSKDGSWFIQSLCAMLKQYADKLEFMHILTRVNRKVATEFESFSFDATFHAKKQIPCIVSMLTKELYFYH
The assay can be described thus: SAR Analysis of small molecule inhibitors of Sentrin-specific proteases (SENPs) using a Caspase-3 Selectivity assay. [Related pubchem assays (depositor defined):AID2540, AID2599, AID434973, AID489001]. It is filed as functional.

Assay [6] deals with T5, Heat shock factor protein 1 (Mus musculus, UniProt P38532).
T5 sequence (P38532 whole entry): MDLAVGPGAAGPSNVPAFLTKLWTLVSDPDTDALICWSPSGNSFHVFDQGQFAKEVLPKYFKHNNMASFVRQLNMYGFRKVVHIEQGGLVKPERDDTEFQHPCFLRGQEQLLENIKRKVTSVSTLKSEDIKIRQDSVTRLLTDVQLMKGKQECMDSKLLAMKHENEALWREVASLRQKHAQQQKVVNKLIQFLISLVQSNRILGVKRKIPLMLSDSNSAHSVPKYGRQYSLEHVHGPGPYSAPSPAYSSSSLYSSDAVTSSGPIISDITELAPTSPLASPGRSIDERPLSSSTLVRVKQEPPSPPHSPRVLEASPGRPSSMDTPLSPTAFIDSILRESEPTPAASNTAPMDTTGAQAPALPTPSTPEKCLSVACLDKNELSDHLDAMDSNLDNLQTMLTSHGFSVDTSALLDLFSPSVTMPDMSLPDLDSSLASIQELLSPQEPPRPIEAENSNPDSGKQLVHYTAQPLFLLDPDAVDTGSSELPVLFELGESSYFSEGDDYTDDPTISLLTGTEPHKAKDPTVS
Description: enhancement of HSF1-driven luciferase signal – cell-based, NIH3T3, luminescence, dose retest, confirmation (AID 435004).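 Also: stress induced by proteasome inhibitor MG132 added 30 min after compound; luciferase reporter driven by HSF1 response element in NIH3T3 cells; actives raise luminescence as potentiators of the MG132 stress response.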 The class given is functional.

Each structure is given as a SMILES string. Active and inactive are the calls of the source. Rule as the data show it, for most assays here: actives have a measured IC50 and inactives only a lower limit.

Sequence of Serine/threonine-protein phosphatase PP1-alpha catalytic subunit (P62136 whole entry): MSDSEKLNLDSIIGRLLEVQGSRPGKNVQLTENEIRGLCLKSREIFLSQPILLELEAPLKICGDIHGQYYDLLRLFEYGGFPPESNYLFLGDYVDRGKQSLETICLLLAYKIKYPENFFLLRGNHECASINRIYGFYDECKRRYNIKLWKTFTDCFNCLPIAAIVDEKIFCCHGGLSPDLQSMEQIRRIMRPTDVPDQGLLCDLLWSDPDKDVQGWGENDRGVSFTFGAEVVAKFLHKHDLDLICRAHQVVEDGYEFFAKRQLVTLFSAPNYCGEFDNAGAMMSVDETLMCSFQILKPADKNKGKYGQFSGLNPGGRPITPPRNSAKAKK
Sequence of Intestinal-type alkaline phosphatase (P09923 whole entry): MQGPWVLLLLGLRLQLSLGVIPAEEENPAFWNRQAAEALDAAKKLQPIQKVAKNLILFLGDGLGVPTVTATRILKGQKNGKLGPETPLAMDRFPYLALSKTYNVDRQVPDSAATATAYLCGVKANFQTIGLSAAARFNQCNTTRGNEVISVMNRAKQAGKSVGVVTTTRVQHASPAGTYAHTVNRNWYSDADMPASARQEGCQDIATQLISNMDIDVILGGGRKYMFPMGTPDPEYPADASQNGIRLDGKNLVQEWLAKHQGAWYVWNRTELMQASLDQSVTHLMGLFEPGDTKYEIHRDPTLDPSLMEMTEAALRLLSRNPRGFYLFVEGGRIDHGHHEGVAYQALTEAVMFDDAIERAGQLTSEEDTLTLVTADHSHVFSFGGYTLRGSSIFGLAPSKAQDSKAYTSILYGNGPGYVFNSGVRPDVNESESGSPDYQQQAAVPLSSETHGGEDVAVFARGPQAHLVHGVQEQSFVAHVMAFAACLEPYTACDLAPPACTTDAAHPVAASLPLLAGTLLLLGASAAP

As for `CCCOc1cc2c(C#N)c(N3CCCC3)nc(N)c2c(N)n1`, the IC50 (in general, the concentration that inhibits the measured activity by half) is > 67 µM (not active) in assay [1], 3.96 µM (active) in assay [2] and 4.32 µM (active) in assay [3].
As to `Oc1ccc(/C=N/Nc2cc(N3CCCC3)nc(N3CCCC3)n2)cc1O`, the EC50 – broadly, the concentration at which the effect is half-maximal – in assay [4] is > 100 µM (inactive). Also, the figures for the IC50 (in assay [5]; on Caspase-3) were > 100 µM (inactive) and > 99 µM (inactive), respectively.
Consider `Cc1cc2nc3ccc(N(C)C)cc3[s+]c2cc1N` [TOLONIUM CHLORIDE], for which the EC50 in assay [6] was > 260 µM (inactive).
